Measured values as given in patent EP1083874B1, “Use of a compound for the preparation of a medicament for treating alopecia or promoting hair growth in an animal” (GPI NIL Holdings, Inc., priority 1998, dated 1999).

Molecular target: FKBP12 (Homo sapiens, UniProt P62942)
Assay: Ki test procedure: inhibition of peptidyl-prolyl isomerase (rotamase) activity, chymotrypsin-coupled assay
Format: biochemical
Settings: apparent Ki
Description: The inhibition of the prolyl peptidyl cis-trans isomerase activity of FKBP may be measured as an indicator of this affinity.
Inhibition of the peptidyl-prolyl isomerase (rotamase) activity of the compounds used in the pharmaceutical compositions can be evaluated by known methods described in the literature (Harding et al., Nature, 1989, 341:758-760; Holt et al. J. Am. Chem. Soc., 115:9923-9938).
The cis-trans isomerization of an alanine-proline bond in a model substrate, N-succinyl-Ala-Ala-Pro-Phe-p-nitroanilide, is monitored spectrophotometrically in a chymotrypsin-coupled assay, which releases para-nitroanilide from the trans form of the substrate. The inhibition of this reaction caused by the addition of different concentrations of inhibitor is determined, and the data is analyzed as a change in first-order rate constant as a function of inhibitor concentration to yield the apparent Ki values.
In a plastic cuvette are added […] of ice cold assay buffer (25 mM HEPES, pH 7.8, 100 mM NaCl), 10 mL of FKBP (2.5 mM in 10 mM Tris-Cl pH 7.5, 100 mM NaCl, 1 mM dithiothreitol), 25 mL of chymotrypsin (50 mg/ml in 1 mM HCl) and […] of test compound at various concentrations in dimethyl sulfoxide. The reaction is initiated by the addition of 5 mL of substrate (succinyl-Ala-Phe-Pro-Phe-para-nitroanilide, 5 mg/mL in 2.35 mM LiCl in trifluoroethanol).
The absorbance at 390 nm versus time is monitored for 90 seconds using a spectrophotometer and the rate constants are determined from the absorbance versus time data files.

FKBP12, sequence (P62942 whole entry, species assumed): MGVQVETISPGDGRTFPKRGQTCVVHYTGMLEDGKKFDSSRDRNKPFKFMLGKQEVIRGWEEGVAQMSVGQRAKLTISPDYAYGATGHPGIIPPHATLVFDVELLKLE

| Structure (SMILES) | Ki [nM] |
| --- | --- |
| O=C(C(=O)N1CCCC[C@H]1C(=O)OCc1ccccc1)c1ccccc1 [Compound 10] | 1500 |
| O=C(C(=O)N1CCCC[C@H]1C(=O)OCCCCc1ccccc1)c1ccccc1 [Compound 13] | 350 |
| O=C(C(=O)N1CCCC[C@H]1C(=O)OCCc1ccccc1)c1ccccc1 [Compound 14] | 1100 |
| O=C(C(=O)N1CCCC[C@H]1C(=O)OCCCCC1CCCCC1)c1ccccc1 [Compound 15] | 400 |
| COC(=O)C(=O)N1CCCC[C@H]1C(=O)OCc1ccccc1 [Compound 16] | 80000 |
| COC(=O)C(=O)N1CCCC[C@H]1C(=O)OCCCC1CCCCC1 [Compound 18] | 20000 |
| COC(=O)C(=O)N1CCCC[C@H]1C(=O)OCCCC1CCCC1 [Compound 19] | 35000 |
| O=C(C(=O)N1CCCC[C@H]1C(=O)OCc1ccccc1)c1ccco1 [Compound 20] | 3000 |
| COc1cc(C(=O)C(=O)N2CCCC[C@H]2C(=O)OCCCCc2ccccc2)cc(OC)c1OC [Compound 23] | 19 |
| COc1ccc(CCCCOC(=O)[C@@H]2CCCCN2C(=O)C(=O)c2cc(OC)c(OC)c(OC)c2)cc1 [Compound 25] | 13 |
